Common to all, as to test: relative viability (nuclei count vs DMSO), 5 days (fraction); higher = more cells survive
Compound in one experiment: C=CCn1c(=O)c2cnc(Nc3ccc(N4CCN(C)CC4)cc3)nc2n1-c1cccc(C(C)(C)O)n1 [Adavosertib]
In short, it runs like this:
(§1)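 Only plates meeting two conditions passed: control CV below 25% and at least one doubling. Lung cancer cell lines, kept overnight at 37 °C in 1536-well plates, were pinned with five library-drug doses (not always all listed) √10 apart on vehicle-anchored plates and grown 5 days without medium change. A one-step fix, permeabilisation and Hoechst stain preceded 4× imaging and MetaXpress nuclear counting. Viability equals treated-well nuclei divided by vehicle-well nuclei, as the median over plates.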

Compound in a further experiment: COc1nc(N)nc2c1ncn2[C@@H]1O[C@H](CO)[C@@H](O)[C@@H]1O [Nelarabine]
The essentials: as §1

Compound in the experiment “Adavosertib + Foretinib”: C=CCn1c(=O)c2cnc(Nc3ccc(N4CCN(C)CC4)cc3)nc2n1-c1cccc(C(C)(C)O)n1 [Adavosertib] + COc1cc2c(Oc3ccc(NC(=O)C4(C(=O)Nc5ccc(F)cc5)CC4)cc3F)ccnc2cc1OCCCN1CCOCC1 [Foretinib] (partner 0.25 µM)
In short, it runs like this:
(§2)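 Lung cancer cell lines in 1536-well plates got either a single drug or a fixed anchor-drug dose together with five library-drug doses (not always all listed) in √10 steps, by pin tool, on the day after seeding. Nuclei were counted after 5 days, and relative viability is the treated-to-vehicle ratio of nuclei counts. Values are medians of duplicate plates.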

Compound in the experiment “Nelarabine + Vorinostat”: COc1nc(N)nc2c1ncn2[C@@H]1O[C@H](CO)[C@@H](O)[C@@H]1O [Nelarabine] + O=C(CCCCCCC(=O)Nc1ccccc1)NO [Vorinostat] (partner 1 µM)
In short, it runs like this: as §2

Regarding EMC-BAC-2, the relative viability in the experiment with Adavosertib (0.03162 µM) is 1.02; in the experiment with Adavosertib (0.1 µM), 1.08; with Adavosertib (0.3162 µM) it was 0.919; in the experiment with Nelarabine (0.01 µM) it was 1.01; with Nelarabine (0.03162 µM), 1.22; with Nelarabine (0.1 µM), 1.08. The relative viability with Nelarabine (0.3162 µM) stood at 0.968; with Nelarabine (1 µM) it was 1.07; with Adavosertib + Foretinib (first compound 0.01 µM), 1.08; in the experiment with Adavosertib + Foretinib (first compound 0.03162 µM) it was 1.01; with Adavosertib + Foretinib (first compound 0.1 µM), 0.995; in the experiment with Adavosertib + Foretinib (first compound 0.3162 µM) it was 0.949. Further, the relative viability with Nelarabine + Vorinostat (first compound 0.01 µM) came to 0.47; in the experiment with Nelarabine + Vorinostat (first compound 0.03162 µM) it was 1.01; in the experiment with Nelarabine + Vorinostat (first compound 0.1 µM), 0.643; with Nelarabine + Vorinostat (first compound 0.3162 µM) it was 0.441; with Nelarabine + Vorinostat (first compound 1 µM) it was 0.399.

The record behind these values is the supplement of paper PMC10307832.
